Data as given in PMC9870775, “Potent Dual Polymerase/Exonuclease Inhibitory Activities of Antioxidant Aminothiadiazoles Against the COVID-19 Omicron Virus: A Promising In Silico/In Vitro Repositioning Research Study” (Molecular Biotechnology, 2023).
Several values for one entry are separate records, joined by “and”; a condition that tells them apart may be missing. Identical values can stand only once. Like-named read-outs stand apart in the source and are kept apart here.

System: SARS-CoV-2 (Omicron variant, B.1.1.529.1/BA.1 sublineage)
Test: microbe, parasite or virus in culture
Assay type: cell-based
Settings: for EC50 / EC90: Severe acute respiratory syndrome coronavirus 2, Vero C1008, 48 h; for EC90: read-out: 90% Reduction in Infectious Virus (EC90)
[1] = read-out: 50% Reduction in Infectious Virus (EC50)
[2] = read-out: 50% Reduction in Viral RNA Copy (EC50)
[3] = after starting administration and treatment

Compound | 100% CPE Inhibitory Concentration (CPEIC100) | EC50 [1] [nM] | EC50 [2] [nM] | EC90 [nM] | Time to maximal effectiveness against the Omicron-variant particles [3] [h] | Time to maximal effectiveness against the Omicron-variant particles [h]
Nc1nnc(-c2cnc3cc(Cl)ccc3c2O)s1 [ChloViD2022, 3-(5-amino-1,3,4-thiadiazol-2-yl)-7-chloroquinolin-4-ol] | 1.09 µM and 1.09 ± 0.04 µM | 410 ± 20 | 440 ± 20 | 1530 ± 50 | 4 to 10 | 
Nc1nnc(CC(O)(Cc2nnc(N)s2)c2nnc(N)s2)s1 [CoViTris2022, 1,2,3-tris(5-amino-1,3,4-thiadiazol-2-yl)propan-2-ol] | 1.60 ± 0.06 µM | 690 ± 30 | 700 ± 40 | 2010 ± 70 |  | 4 to 10
CC(C)C(=O)OC[C@H]1O[C@@H](n2ccc(NO)nc2=O)[C@H](O)[C@@H]1O [Molnupiravir, molnupiravir, reference compound] | 6.25 µM and 6.25 ± 0.31 µM |  |  | 9160 ± 370 |  | 
Nc1nnc([C@H](O)[C@@H](O)c2nnc(N)s2)s1 [Taroxaz-26, (1R,2R)-1,2-bis(5-amino-1,3,4-thiadiazol-2-yl)ethane-1,2-diol] | 1.83 µM and 1.83 ± 0.07 µM | 730 ± 30 | 770 ± 40 | 2340 ± 80 | 4 to 10 | 
